Measured values published in patent US20090246169A1, “INDOLOPYRIDINES AS EG5 KINESIN MODULATORS” (priority 2006, published 2009).

Test system: RKO p21 colon adenocarcinoma cells, uninduced (proliferating)
Experiment: Alamar Blue cell viability assay, RKO p21 uninduced (proliferating)
Type: cell-based
Details: Homo sapiens; anti-proliferative/cytotoxic activity, 72 hours, without Ponasterone A; read-out: −log EC50 [mol/l] RKO p21 uninduced (proliferating) (converted)
Procedure: The anti-proliferative/cytotoxic activity of the compounds described herein can be tested on subclones of RKO human colon adenocarcinoma cells (Schmidt et al., Oncogene 19, 2423-2429; 2000) using the Alamar Blue cell viability assay (described in O'Brien et al. Eur J Biochem 267, 5421-5426, 2000). The compounds are dissolved as 10 mM solutions in DMSO and subsequently diluted in semi-logarithmic steps. DMSO dilutions are further diluted 1:100 into Dulbecco's modified Eagle's medium (DMEM) containing 10% fetal calf serum to a final concentration twice as much as the final concentration in the test. RKO subclones are seeded into 96 well flat bottom plates at a density of 4000 cells per well in a volume of 50 μl per well. 24 hours after seeding the 50 μl each of the compound dilutions in DMEM medium are added into each well of the 96 well plate. Each compound dilution is tested as triplicates. Wells containing untreated control cells are filled with 50 μl DMEM medium containing 1% DMSO. The cells are then incubated with the substances for 72 hours at 37° C. in a humidified atmosphere containing 5% carbon dioxide. To determine the viability of the cells, 10 μl of an Alamar Blue solution (Biosource) are added and the fluorescence is measured at an extinction of 544 nm and an emission of 590 nm. For the calculation of the cell viability the emission value from untreated cells is set as 100% viability and the emission rates of treated cells are set in relation to the values of untreated cells. Viabilities are expressed as % values. The Graphpad Prism program is used for the calculation of EC50 values for anti-proliferative/cytotoxic activity out of the obtained dose-response curves.
To determine the cell cycle specific mode of action, subclones of RKO colon adenocarcinoma cells (RKOp21 or RKOp27 as described by Schmidt et al. in Oncogene 19, 2423-2429; 2000) are seeded into 96 well flat bottom plates at a density of 16000 cells per well in a volume of 50 μl per well in DMEM growth medium with 10% FCS containing 10 μM Ponasterone A. 24 hours after seeding the 50 μl each of the compound dilutions in DMEM medium are added into each well of the 96-well plate. Each compound dilution is tested as triplicates. Wells containing untreated control cells are filled with 50 μl DMEM medium containing 1% DMSO. The cells are then incubated with the substances for 72 hours at 37° C. in a humidified atmosphere containing 5% carbon dioxide. To determine the viability of the cells, 10 μl of an Alamar Blue solution (Biosource) are added and the fluorescence is measured at an extinction of 544 nm and an emission of 590 nm. For the calculation of the cell viability the emission value from untreated cells is set as 100% viability and the emission rates of treated cells are set in relation to the values of untreated cells. Viabilities are expressed as % values. The Graphpad Prism program (GraphPad Software, Inc) is used for the calculation of EC50 values out of the obtained dose-response curves. Viability is compared of proliferating cells grown in the absence of the inducer Ponasterone A, versus viability of cells arrested by the expression of ectopic p27Kip1 induced by Ponasterone A.
Representative values for anti-proliferation/cytotoxicity [measured as −log EC50 (mol/l)] determined in the aforementioned assays follow from the following tables B1 and B2, in which the numbers of the compounds correspond to the numbers of the examples.

| Compound | EC50 [µM] |
| --- | --- |
| COc1ccc2[nH]c3c(c2c1)C[C@@]1(C)C(=O)N(CCNCC(C)C)C(=O)N1[C@@H]3c1ccccc1 (racemic) [Example 35, (3aSR, 10RS)-2-(2-Isobutyl-amino-ethyl)-6-methoxy-3a-methyl-10-phenyl-3a,4,9,10-tetrahydro-2,9,10a-triaza-cyclopenta[b]fluorene-1,3-dione] | ≤ 1 |
| CCN(CCO)CCN1C(=O)N2[C@H](c3ccccc3)c3[nH]c4ccc(OC)cc4c3C[C@@]2(C)C1=O (racemic) [Example 36, (3aSR, 10RS)-2-{2-[Ethyl-(2-hydroxy-ethyl)-amino]-ethyl}-6-methoxy-3a-methyl-10-phenyl-3a,4,9,10-tetra-hydro-2,9,10a-triaza-cyclo-penta[b]fluorene-1,3-dione] | ≤ 1 |
| C=CCN(C)CCN1C(=O)N2[C@H](c3ccccc3)c3[nH]c4ccc(OC)cc4c3C[C@@]2(C)C1=O (racemic) [Example 37, (3aSR, 10RS)-2-[2-(Allyl-methyl-amino)-ethyl]-6-methoxy-3a-methyl-10-phenyl-3a,4,9,10-tetrahydro-2,9,10a-triaza-cyclopenta [b]fluorene-1,3-dione] | ≤ 1 |
| COc1ccc2[nH]c3c(c2c1)C[C@@]1(C)C(=O)N(CCN(C)C(C)C)C(=O)N1[C@@H]3c1ccccc1 (racemic) [Example 39, (3aSR, 10RS)-2-[2-(Isopropyl-methyl-amino)-ethyl]-6-methoxy-3a-methyl-10-phenyl-3a,4,9,10-tetra-hydro-2,9,10a-triaza-cyclo-penta[b]fluorene-1,3-dione] | ≤ 1 |
| COc1ccc2[nH]c3c(c2c1)C[C@@]1(C)C(=O)N(CCN2CCOCC2)C(=O)N1[C@@H]3c1ccccc1 (racemic) [Example 40, (3aSR, 10RS)-6-Methoxy-3a-methyl-2-(2-morpholin-4-yl-ethyl)-10-phenyl-3a,4,9,10-tetrahydro-2,9,10a-triaza-cyclopenta[b]fluorene-1,3-dione] | ≤ 1 |
| CCN(CC)CCN1C(=O)N2[C@H](c3ccccc3)c3[nH]c4ccc(OC)cc4c3C[C@@]2(C)C1=O (racemic) [Example 41, (3aSR, 10RS)-2-(2-Diethyl-amino-ethyl)-6-methoxy-3a-methyl-10-phenyl-3a,4,9,10-tetrahydro-2,9,10a-triaza-cyclopenta[b]fluorene-1,3-dione] | ≤ 1 |
| COc1ccc2[nH]c3c(c2c1)C[C@@]1(C)C(=O)N(CCN2CCCCCC2)C(=O)N1[C@@H]3c1ccccc1 (racemic) [Example 43, (3aSR, 10RS)-2-(2-Azepan-1-yl-ethyl)-6-methoxy-3a-methyl-10-phenyl-3a,4,9,10-tetrahydro-2,9,10a-triaza-cyclopenta[b]fluorene-1,3-dione] | ≤ 1 |
| CCNCCCN1C(=O)N2[C@H](c3ccccc3)c3[nH]c4ccc(OC)cc4c3C[C@@]2(C)C1=O (racemic) [Example 44, (3aSR, 10RS)-2-(3-Ethyl-amino-propyl)-6-methoxy-3a-methyl-10-phenyl-3a,4,9,10-tetrahydro-2,9,10a-triaza-cyclopenta[b]fluorene-1,3-dione] | ≤ 1 |
| COc1ccc2[nH]c3c(c2c1)C[C@@]1(C)C(=O)N(CCCN(C)C)C(=O)N1[C@@H]3c1ccccc1 (racemic) [Example 45, (3aSR, 10RS)-2-(3-Dimethylamino-propyl)-6-methoxy-3a-methyl-10-phenyl-3a,4,9,10-tetrahydro-2,9,10a-triaza-cyclopenta[b] fluorene-1,3-dione] | ≤ 1 |
| COc1ccc2[nH]c3c(c2c1)C[C@@]1(C)C(=O)N(CCCN(C)CCO)C(=O)N1[C@@H]3c1ccccc1 (racemic) [Example 46, (3aSR, 10RS)-2-{3-[(2-Hydroxy-ethyl)-methyl-amino]-propyl}-6-methoxy-3a-methyl-10-phenyl-3a,4,9,10-tetrahydro-2,9,10a-triaza-cyclopenta[b]fluorene-1,3-dione] | ≤ 1 |
| COc1ccc2[nH]c3c(c2c1)C[C@@]1(C)C(=O)N(CCN2CCN(C(C)=O)CC2)C(=O)N1[C@@H]3c1ccccc1 (racemic) [Example 47, (3aSR, 10RS)-2-[2-(4-Acetyl-piperazin-1-yl)-ethyl]-6-methoxy-3a-methyl-10-phenyl-3a,4,9,10-tetrahydro-2,9,10a-triaza-cyclopenta[b] fluorene-1,3-dione] | ≤ 1 |
| COc1ccc2[nH]c3c(c2c1)C[C@@]1(C)C(=O)N(CCNC2CC2)C(=O)N1[C@@H]3c1ccccc1 (racemic) [Example 49, (3aSR, 10RS)-2-(2-Cyclo-propylamino-ethyl)-6-methoxy-3a-methyl-10-phenyl-3a,4,9,10-tetrahydro-2,9,10a-triaza-cyclopenta [b]fluorene-1,3-dione] | ≤ 1 |
| COc1ccc2[nH]c3c(c2c1)C[C@@]1(C)C(=O)N(CCCNC(C)C)C(=O)N1[C@@H]3c1ccccc1 (racemic) [Example 51, (3aSR, 10RS)-2-(3-Isopropylamino-propyl)-6-methoxy-3a-methyl-10-phenyl-3a,4,9,10-tetrahydro-2,9,10a-triaza-cyclopenta[b] fluorene-1,3-dione] | ≤ 1 |
| COc1ccc2[nH]c3c(c2c1)C[C@@]1(C)C(=O)N(CCCNCC(C)C)C(=O)N1[C@@H]3c1ccccc1 (racemic) [Example 52, (3aSR, 10RS)-2-(3-Isobutylamino-propyl)-6-methoxy-3a-methyl-10-phenyl-3a,4,9,10-tetrahydro-2,9,10a-triaza-cyclopenta[b] fluorene-1,3-dione] | ≤ 1 |
| CCN(C)CCCN1C(=O)N2[C@H](c3ccccc3)c3[nH]c4ccc(OC)cc4c3C[C@@]2(C)C1=O (racemic) [Example 53, (3aSR, 10RS)-2-[3-(Ethyl-methyl-amino)-propyl]-6-methoxy-3a-methyl-10-phenyl-3a,4,9,10-tetrahydro-2,9,10a-triaza-cyclopenta[b] fluorene-1,3-dione] | ≤ 1 |
| CCN(CC)CCCN1C(=O)N2[C@H](c3ccccc3)c3[nH]c4ccc(OC)cc4c3C[C@@]2(C)C1=O (racemic) [Example 54, (3aSR, 10RS)-2-(3-Diethyl-amino-propyl)-6-methoxy-3a-methyl-10-phenyl-3a,4,9,10-tetrahydro-2,9,10a-triaza-cyclopenta[b]fluorene-1,3-dione] | ≤ 1 |
| CCN(CCO)CCCN1C(=O)N2[C@H](c3ccccc3)c3[nH]c4ccc(OC)cc4c3C[C@@]2(C)C1=O (racemic) [Example 55, (3aSR, 10RS)-2-{3-[Ethyl-(2-hydroxy-ethyl)-amino]-propyl}-6-methoxy-3a-methyl-10-phenyl-3a,4,9,10-tetrahydro-2,9,10a-triaza-cyclopenta[b]fluorene-1,3-dione] | ≤ 1 |
| CCN(CCCN1C(=O)N2[C@H](c3ccccc3)c3[nH]c4ccc(OC)cc4c3C[C@@]2(C)C1=O)CCOC (racemic) [Example 56, (3aSR, 10RS)-2-{3-[Ethyl-(2-methoxy-ethyl)-amino]-propyl}-6-methoxy-3a-methyl-10-phenyl-3a,4,9,10-tetrahydro-2,9,10a-triaza-cyclopenta[b]fluorene-1,3-dione] | ≤ 1 |
| C=CCN(C)CCCN1C(=O)N2[C@H](c3ccccc3)c3[nH]c4ccc(OC)cc4c3C[C@@]2(C)C1=O (racemic) [Example 57, (3aSR, 10RS)-2-[3-(Allyl-methyl-amino)-propyl]-6-methoxy-3a-methyl-10-phenyl-3a,4,9,10-tetrahydro-2,9,10a-triaza-cyclopenta[b] fluorene-1,3-dione] | ≤ 1 |
